Experiments:
[1] = test system: UV-irradiated Xenopus laevis stage 1 embryos; experiment: Rescue of dorsal axis formation in UV-irradiated embryos, scored by dorsal anterior index (DAI); format: in vivo
Procedure: Several hundred spawned eggs were fertilized in vitro and incubated at 16 to 18° C. […] The vegetal surfaces of some of these embryos were irradiated with one or the other sources of UV light within 10 min of fertilization for 20-30 min. […] The embryos were not disturbed, touched or tipped from the moment of fertilization, during UV irradiation or for the duration of development. […] A score of 5 defines a normal dorsal axis, 4 a microcephalic, 3 a cyclopic, 2 an anoptic, 1 an acephalic and 0 an adorsal embryo.
The biological activities of biliverdin and its derivatives were tested by adding each of them to the incubation solution of embryos after the termination of the UV light exposure to either 254 or 366 nm UV light and at selected time periods between T ƒfm=0.4-2.5. Final concentrations of biliverdin ranged from 0.05 to 5 μM in less than 1% ethanol. […] An extinction coefficient of 51,000 was utilized to calculate their concentrations. All petri dishes were covered with aluminum foil to avoid light exposure. The extent of dorsal axis formation was analyzed by the morphological criteria described above.
Stage 1 embryos were exposed to UV-light source emitting at 366 nm (Mineralight UVSL-58, Ultraviolet Products, Inc., San Gabriel, Calif.) as described and then incubated in the presence of pure candidate DCD or commercially available biliverdin (Sigma-Aldrich, St. Louis, Mo.) at final concentrations from 0.05 to 1.2 μM in less than 1% ethanol. The concentrations were calculated using a molar extinction coefficient of 51,000. One group of embryos was not exposed to UV light but was incubated in the presence of 0.5 μM of candidate DCD.

[2] = target: T1, peroxisome proliferator-activated receptor (PPARγ) system (Homo sapiens, UniProt P37231); experiment: Use of the peroxisome proliferator-activated receptor system
T1 sequence (P37231 1-505): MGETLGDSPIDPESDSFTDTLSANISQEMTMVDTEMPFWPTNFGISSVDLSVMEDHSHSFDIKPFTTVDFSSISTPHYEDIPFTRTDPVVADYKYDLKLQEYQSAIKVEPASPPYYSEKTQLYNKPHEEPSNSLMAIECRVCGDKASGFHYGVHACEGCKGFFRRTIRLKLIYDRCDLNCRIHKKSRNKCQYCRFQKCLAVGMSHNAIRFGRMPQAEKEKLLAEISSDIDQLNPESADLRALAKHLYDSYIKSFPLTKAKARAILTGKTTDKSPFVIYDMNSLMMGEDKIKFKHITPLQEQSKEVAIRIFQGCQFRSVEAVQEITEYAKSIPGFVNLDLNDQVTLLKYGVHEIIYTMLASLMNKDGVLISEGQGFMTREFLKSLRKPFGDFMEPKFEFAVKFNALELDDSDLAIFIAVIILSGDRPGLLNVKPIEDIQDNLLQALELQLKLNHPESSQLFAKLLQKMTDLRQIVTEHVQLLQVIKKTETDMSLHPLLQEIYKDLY

[3] = test system: alkaline phosphatase activity in HT 29 cells; experiment: Cellular alkaline phosphatase activity of HT 29 cells; format: cell-based, human; conditions: HT 29, by day 20 of incubation
Procedure: Expression of differentiation markers. Carcinoembryogenic antigen in cell supernatants collected each three days was assayed by standard ELISA determinations using an IMX assay for quantitative measurement of the antigen. Cellular triacyl glycerol content was measured spectrophotometrically by enzymatic hydrolysis and analysis of the amount of glycerol released using a standard assay, Triglyceride (INT) 10 (Sigma Diagnostics). […] The fluorescence is detected at 450 nm with an excitation of 365 nm, using a Jobin Ivon-Spex Fluoro Max-2 fluorimeter. The alkaline phosphatase activity detected was expressed in units of μmol/mg protein/min. Alkaline phosphatase activity was assayed at the same periods as above but with different sets of cells. Treated and control cells were detached with trypsin and counted. One half of the cells were used to maintain the culture while the other half were used to measure alkaline phosphatase activity. […] Absorbance was detected at […] on a Varian Cary UV-Visible Spectrophotometer. The absorbance was compared against a standard curve created with bovine serum albumin from 2.5 to 25 μg/ml. […] The fluorescence generated is detected at 450 nm with an excitation of 365 nm, using a Jobin Ivon-Spex Fluoro Max-2 fluorimeter. […] The alkaline phosphatase actively detected was expressed in units of μmol product/mg protein/min.

HT29 colon cancer cells = experiment: Cellular proliferation and viability of HT29 colon cancer cells; format: cell-based, human
Procedure: Cell Culture Conditions. Human HT 29 colon cancer cells were purchased from the American Type Culture Collection. Cells were maintained in Dulbecco's Modified Eagle's Medium (DME) supplemented with 5% heat-inactivated fetal bovine serum, 2 mM glutamine, and antibiotics (DME/5%). All cell lines were incubated in a humidified 5% CO2/air environment. They were maintained at 37° C. in 5% CO2 covered in aluminum foil to prevent exposure to the light. A total of 1×10^6 cells were incubated per flask and allowed to attach overnight. Media was changed every third day. Cell counts were performed on a Coulter Counter following detachment of cells by standard trypsinization procedures. […] The period of exposure was followed by incubation in the absence of biliverdine. Cell numbers were monitored until proliferation resumed. The production of CEA and alkaline phosphatase was measured as described below.
The HT29 colon cancer cells were incubated with different concentrations of biliverdine and their response studied to identify the concentration ranges required to elicit a biological and/or a toxicological response (Table III).

[4] = UV exposed embryos incubated with the intact tetrapyrrole

For `C=CC1=C(C)/C(=C/C2=NC(=C\c3[nH]c(/C=C4\NC(=O)C(C)=C4C=C)c(C)c3CCC(=O)O)/C(CCC(=O)O)=C2C)NC1=O` [Biliverdin, biliverdin IXα], the “embryos scored with a DAI between 5-4” value ([1]; 254 nm UV light, treated with biliverdin) was “About 51%”, the “concentration at which plateau of recovery is reached” value ([1]; 254 or 366 nm UV light, FIG. 3C) was 1.2 µM and the “recovery of dorsal axial structures” value ([1]; 254 or 366 nm UV-irradiated embryos, μM amounts) was “recover to form dorsal axial structures”. The “embryos that recover and are scored with 4-5” value ([1]; 366 nm UV light, incubated with biliverdin) was roughly 55%, the “embryos that do not develop dorsal structures, DAI of 0” value [1, 4] was 20 to 30% and the “tadpoles that develop with DAI scores of 5 or 4” value [1, 4] was “About 55%”. For the same compound, the “degree of recovery of dorsal axis formation relative to oocyte biliverdin” value ([1]; UV-irradiated embryos, FIG. 2E) was “comparable”, the “Average DAI score” value ([1]; embryos irradiated with 254 nm UV light, treated with biliverdin, DAI 5 normal, 0 adorsal) was 2.72 and the “Average DAI score” value ([1]; embryos irradiated with 366 nm UV light, incubated with biliverdin, total population) was 3.08. For the same compound, the “use of the PPARγ system” value [2] was “does not use”, the “peak increase of alkaline phosphatase activity” value [3] was “fifteen-fold” and the “amount that does not affect cellular survival or proliferation” value (HT29 colon cancer cells; HT29) was “lower than 10^−7 M”. The “concentration that causes apoptosis” value (HT29 colon cancer cells; HT29) was no less than 1 µM, the “concentration with no effect on survival or proliferation” value (HT29 colon cancer cells; HT29) was “below 0.1 μM” and the “Effect on cellular proliferation and viability” value (HT29 colon cancer cells; HT29, 0.01 μM) was “None”. The “Effect on cellular proliferation and viability” value (HT29 colon cancer cells; HT29, 0.1 μM) was “Proliferative Arrest”, the “Effect on cellular proliferation and viability” value (HT29 colon cancer cells; HT29, 0.30 μM) was “Proliferative Arrest” and the “Effect on cellular proliferation and viability” value (HT29 colon cancer cells; HT29, 0.40 μM) was “Proliferative Arrest”. For the same compound, the “Effect on cellular proliferation and viability” value (HT29 colon cancer cells; HT29, 1.00 μM) was “Apoptosis”, the effect on proliferation (HT29 colon cancer cells; HT29, 5 μM, associated decrease of cell numbers in first three days) was “arrests proliferation” and the “time until proliferative arrest” value (HT29 colon cancer cells; HT29, 0.1 to 0.4 μM) was no more than 72 h. The “doubling time during exposure” value (HT29 colon cancer cells; HT29, 4×10^−7 M, next 35 days after arrest) was 103 h, the “time of exposure until proliferation is arrested” value (HT29 colon cancer cells; HT29, FIG. 9) was no more than 1 days and the “proliferation rate after resumption, fold less than control” value (HT29 colon cancer cells; HT29, after end of exposure) was 2-3 fold. For the same compound, the “reduction of three-day cell number increase compared to controls” value (HT29 colon cancer cells; HT29, treated and released cells) was “five-fold reduction”, the “increase of cell number in a three-day period” value (HT29 colon cancer cells; HT29, treated and released cells, control about 15 times) was 3.4 times and the “proliferation rate after resumption, relative to control” value (HT29 colon cancer cells; HT29, treatment discontinued day 30, resumption twelve days later) was 43%. The “doubling time after removal of biliverdin” value (HT29 colon cancer cells; HT29, twelve days after removal, control 18 hrs) was 41 h.
